Literature values, collected in patent publication US8192721B2, “Compositions useful for reducing toxicity associated with gadolinium-based contrast agents” (Verrow Pharmaceuticals, Inc., priority 2007, dated 2012).

Tests used:
[1] = healthy subjects with normal renal function
[2] = compared with underivatized β-cyclodextrin

Compound	plasma half-life [1]	nephrotoxicity [2]
[Gd] [gadolinium]	approximately 90 minutes	–
β-cyclodextrin sulfobutyl ethers [Captisol®]	–	does not exhibit the nephrotoxicity
